The structures appear in SMILES notation.

For data set [1], the target named is human Nav1.8 (Homo sapiens (Human), UniProt Q9Y5Y9). Nature of the data set: E-VIPR optical membrane potential assay with electrical stimulation. Type of data set: cell-based. Conditions: HEK cells expressing human Nav1.8.
Data set [2] can be described thus: Microsomal stability assay, human liver microsomes (HLM). It is filed as in vitro ADME. The settings on record: human liver microsomes 0.5 mg/mL, 1 uM substrate, 2 mM NADPH, 37° C., referenced against time zero control. On the procedure:
(§1) Microsomal Stability Assay.
(§2) Compounds were incubated at 37° C. and shaken for 30 minutes in a phosphate buffered solution with either rat or human liver microsomes and the cofactor NADPH. A time zero control was similarly prepared, however with NADPH excluded. The final incubation concentrations were 1 uM substrate (0.2% DMSO), 0.5 mg/mL liver microsome, 2 mM NADPH, and 0.1 M phosphate. Reactions were quenched and proteins precipitated with the addition of 2 volume equivalents of ice cold acetonitrile containing an internal standard. Following a centrifugation step, aliquots from the quenched incubations were further diluted with 4 volume equivalents of a 50% aqueous methanol solution and then subjected to LC/MS/MS analysis for quantitation of parent compound. Microsome stability values were calculated as the percent of substrate remaining after 30 minutes referenced against the time zero control.
(§3) Microsomal stability in rat and human liver microsomes were determined for selected compounds of the present invention using the above assay. Table 4 provides the human liver microsomes (“HLM”) and rat liver microsomes (“RLM”) stability data as the percent of compound remaining after 30 minutes referenced against the time zero control.

Data set [3] can be described thus: Microsomal stability assay, rat liver microsomes (RLM). Type of data set: in vitro ADME. Conditions: rat liver microsomes 0.5 mg/mL, 1 uM substrate, 2 mM NADPH, 37° C., referenced against time zero control. As for the experimental part: as §1, §2, §3

Sequence of human Nav1.8 (Q9Y5Y9 whole entry): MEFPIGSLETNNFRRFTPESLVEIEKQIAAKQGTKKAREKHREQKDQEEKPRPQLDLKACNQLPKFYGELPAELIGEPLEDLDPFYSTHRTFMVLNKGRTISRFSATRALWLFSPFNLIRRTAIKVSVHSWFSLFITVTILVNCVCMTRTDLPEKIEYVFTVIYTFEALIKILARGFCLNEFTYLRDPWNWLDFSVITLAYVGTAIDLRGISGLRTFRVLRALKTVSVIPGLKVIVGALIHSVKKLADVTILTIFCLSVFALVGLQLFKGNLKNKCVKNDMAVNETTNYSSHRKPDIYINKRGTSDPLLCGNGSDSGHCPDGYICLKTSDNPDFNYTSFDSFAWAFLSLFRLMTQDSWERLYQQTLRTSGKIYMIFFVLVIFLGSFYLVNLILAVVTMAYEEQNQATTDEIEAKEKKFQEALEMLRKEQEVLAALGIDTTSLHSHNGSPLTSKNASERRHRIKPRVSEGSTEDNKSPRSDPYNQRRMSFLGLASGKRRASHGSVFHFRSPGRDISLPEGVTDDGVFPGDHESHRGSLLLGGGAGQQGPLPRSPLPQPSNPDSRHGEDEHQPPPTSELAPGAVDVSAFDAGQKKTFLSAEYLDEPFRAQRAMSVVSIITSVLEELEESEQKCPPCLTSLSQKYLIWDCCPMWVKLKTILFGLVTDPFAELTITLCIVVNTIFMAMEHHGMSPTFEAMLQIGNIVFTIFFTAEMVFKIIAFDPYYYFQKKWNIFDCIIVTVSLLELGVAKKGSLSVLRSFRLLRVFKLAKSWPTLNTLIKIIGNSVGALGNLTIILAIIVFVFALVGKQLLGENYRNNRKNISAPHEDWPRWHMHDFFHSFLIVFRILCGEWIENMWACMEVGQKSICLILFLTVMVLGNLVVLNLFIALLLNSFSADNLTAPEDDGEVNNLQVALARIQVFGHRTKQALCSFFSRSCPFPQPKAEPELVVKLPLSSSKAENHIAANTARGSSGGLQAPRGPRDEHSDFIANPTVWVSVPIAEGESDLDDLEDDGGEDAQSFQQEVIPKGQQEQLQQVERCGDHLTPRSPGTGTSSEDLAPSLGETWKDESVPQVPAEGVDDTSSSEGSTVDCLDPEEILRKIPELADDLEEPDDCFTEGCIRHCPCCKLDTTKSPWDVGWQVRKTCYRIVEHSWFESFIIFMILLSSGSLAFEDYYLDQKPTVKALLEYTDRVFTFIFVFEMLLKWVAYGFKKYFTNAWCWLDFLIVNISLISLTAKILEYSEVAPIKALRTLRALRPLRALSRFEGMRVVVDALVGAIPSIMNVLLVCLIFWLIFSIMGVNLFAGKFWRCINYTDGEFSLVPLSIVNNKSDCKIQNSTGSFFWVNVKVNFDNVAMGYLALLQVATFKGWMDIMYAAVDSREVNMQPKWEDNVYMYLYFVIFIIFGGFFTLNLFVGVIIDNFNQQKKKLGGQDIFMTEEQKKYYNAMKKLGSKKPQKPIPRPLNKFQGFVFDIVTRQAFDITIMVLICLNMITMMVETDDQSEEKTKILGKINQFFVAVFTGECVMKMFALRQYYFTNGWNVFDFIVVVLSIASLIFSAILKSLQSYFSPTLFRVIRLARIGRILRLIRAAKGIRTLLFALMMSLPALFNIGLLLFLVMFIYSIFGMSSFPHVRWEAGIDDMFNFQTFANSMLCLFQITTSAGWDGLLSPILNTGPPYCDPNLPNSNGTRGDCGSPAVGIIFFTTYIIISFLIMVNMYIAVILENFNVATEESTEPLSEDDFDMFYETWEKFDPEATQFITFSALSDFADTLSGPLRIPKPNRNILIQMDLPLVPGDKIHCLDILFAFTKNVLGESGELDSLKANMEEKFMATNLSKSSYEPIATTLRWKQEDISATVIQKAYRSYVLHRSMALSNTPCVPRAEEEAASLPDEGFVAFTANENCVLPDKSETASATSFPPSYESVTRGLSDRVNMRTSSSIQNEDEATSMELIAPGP

In data set [1], `O=C(Nc1cc[nH]c(=O)c1)c1cc(C(F)(F)F)ccc1Oc1ccc(F)cc1` [Compound 2, 2-(4-fluorophenoxy)-N-(2-oxo-1,2-dihydropyridin-4-yl)-5-(trifluoromethyl)benzamide] came in with an IC50 of 54 nM. Further, in data set [2], the “HLM (% remaining @ 30 minutes)” value is given as 100%. Moreover, the “RLM (% remaining @ 30 minutes)” value in data set [3] came to 104%.

For the compound `O=C(Nc1cc[nH]c(=O)c1)c1ccc(C(F)(F)F)cc1Oc1ccc(F)cc1F` [Compound 7, 2-(2,4-difluorophenoxy)-N-(2-oxo-1,2-dihydropyridin-4-yl)-4-(trifluoromethyl)benzamide], in data set [1], the concentration for half-maximal inhibition (IC50) turned out to be 50 nM. The “HLM (% remaining @ 30 minutes)” value in data set [2] is 97%. For the same compound, in data set [3], the “RLM (% remaining @ 30 minutes)” value came out at 99%.

For the compound `COCCOc1ccc(Oc2cc(C(F)(F)F)ccc2C(=O)Nc2cc[nH]c(=O)c2)cc1` [Compound 8, 2-(4-(2-methoxyethoxy)phenoxy)-N-(2-oxo-1,2-dihydropyridin-4-yl)-4-(trifluoromethyl)benzamide], the IC50 in data set [1] came to 330 nM. Also, the “HLM (% remaining @ 30 minutes)” value in data set [2] is given as 90%. For the same compound, in data set [3], the “RLM (% remaining @ 30 minutes)” value was determined as 86%.

Consider `Cc1cc(F)ccc1Oc1cc(C(F)(F)F)ccc1C(=O)Nc1cc[nH]c(=O)c1` [Compound 10, 2-(4-fluoro-2-methylphenoxy)-N-(2-oxo-1,2-dihydropyridin-4-yl)-4-(trifluoromethyl)benzamide], for which, in data set [2], the “HLM (% remaining @ 30 minutes)” value was 93%. In data set [3], the “RLM (% remaining @ 30 minutes)” value is 82%.

In data set [1], `Cc1cc(F)ccc1Oc1cc(Cl)ccc1C(=O)Nc1cc[nH]c(=O)c1` [Compound 20, 4-chloro-2-(4-fluoro-2-methylphenoxy)-N-(2-oxo-1,2-dihydropyridin-4-yl)benzamide] displayed an IC50 of 30 nM. The “HLM (% remaining @ 30 minutes)” value in data set [2] stood at 104%. Besides, the “RLM (% remaining @ 30 minutes)” value in data set [3] worked out at 88%.

Turning to `Cc1ccccc1Oc1ccc(C(F)(F)F)cc1C(=O)Nc1cc[nH]c(=O)c1` [Compound 28, N-(2-oxo-1,2-dihydropyridin-4-yl)-2-(o-tolyloxy)-5-(trifluoromethyl)benzamide], the IC50 in data set [1] was determined as 44 nM. In addition, the “HLM (% remaining @ 30 minutes)” value in data set [2] is given as 79%. The “RLM (% remaining @ 30 minutes)” value in data set [3] is recorded as 70%.

In turn, `O=C(Nc1cc[nH]c(=O)c1)c1cc(C(F)(F)F)ccc1Oc1ccc(F)cc1Cl` [Compound 29, 2-(2-chloro-4-fluorophenoxy)-N-(2-oxo-1,2-dihydropyridin-4-yl)-5-(trifluoromethyl)benzamide] showed an IC50 in data set [1] of 28 nM. Also, the “HLM (% remaining @ 30 minutes)” value in data set [2] stood at 107%. In addition, the “RLM (% remaining @ 30 minutes)” value in data set [3] is 107%.

As for `COc1cc(F)ccc1Oc1ccc(C(F)(F)F)cc1C(=O)Nc1cc[nH]c(=O)c1` [Compound 30, 2-(4-fluoro-2-methoxyphenoxy)-N-(2-oxo-1,2-dihydropyridin-4-yl)-5-(trifluoromethyl)benzamide], in data set [1], the IC50 was found to be 11 nM. In data set [2], the “HLM (% remaining @ 30 minutes)” value is 76%. Besides, the “RLM (% remaining @ 30 minutes)” value in data set [3] was found to be 78%.

The compound `Cc1cc(F)ccc1Oc1ccc(C(F)(F)F)cc1C(=O)Nc1cc[nH]c(=O)c1` [Compound 31, 2-(4-fluoro-2-methylphenoxy)-N-(2-oxo-1,2-dihydropyridin-4-yl)-5-(trifluoromethyl)benzamide] returned an IC50 in data set [1] of 17 nM. Also, the “HLM (% remaining @ 30 minutes)” value in data set [2] was 92%. In addition, the “RLM (% remaining @ 30 minutes)” value in data set [3] came to 91%.

Regarding `O=C(Nc1cc[nH]c(=O)c1)c1cc(OC(F)(F)F)ccc1Oc1ccc(F)cc1F` [Compound 33, 2-(2,4-difluorophenoxy)-N-(2-oxo-1,2-dihydropyridin-4-yl)-5-(trifluoromethoxy)benzamide], the midpoint of inhibition in data set [1], the IC50, lay at 95 nM. Also, the “HLM (% remaining @ 30 minutes)” value in data set [2] came out at 100%. In addition, in data set [3], the “RLM (% remaining @ 30 minutes)” value is listed as 110%.

`O=C(Nc1cc[nH]c(=O)c1)c1cc(OC(F)(F)F)ccc1Oc1ccc(F)cc1Cl` [Compound 37, 2-(2-chloro-4-fluorophenoxy)-N-(2-oxo-1,2-dihydropyridin-4-yl)-5-(trifluoromethoxy)benzamide] displayed a 50% inhibitory concentration (IC50) in data set [1] of 51 nM. Moreover, the “HLM (% remaining @ 30 minutes)” value in data set [2] was 100%. In data set [3], the “RLM (% remaining @ 30 minutes)” value stood at 97%.

The compound `CCOc1ccc(Oc2ccc(C(F)(F)F)cc2C(=O)Nc2cc[nH]c(=O)c2)cc1` [Compound 44, 2-(4-ethoxyphenoxy)-N-(2-oxo-1,2-dihydropyridin-4-yl)-5-(trifluoromethyl)benzamide] displayed an IC50 in data set [1] of 20 nM. Also, in data set [2], the “HLM (% remaining @ 30 minutes)” value stood at 93%. In data set [3], the “RLM (% remaining @ 30 minutes)” value is on record as 84%.

In turn, `O=C(Nc1cc[nH]c(=O)c1)c1cc(Cl)ccc1Oc1ccc(F)cc1Cl` [Compound 66, 5-chloro-2-(2-chloro-4-fluorophenoxy)-N-(2-oxo-1,2-dihydropyridin-4-yl)benzamide] showed an IC50 in data set [1] of 37 nM. Also, the “HLM (% remaining @ 30 minutes)” value in data set [2] was 100%. The “RLM (% remaining @ 30 minutes)” value in data set [3] worked out at 106%.

As to `Cc1cc(F)ccc1Oc1ccc(Cl)cc1C(=O)Nc1cc[nH]c(=O)c1` [Compound 68, 5-chloro-2-(4-fluoro-2-methylphenoxy)-N-(2-oxo-1,2-dihydropyridin-4-yl)benzamide], in data set [1], the midpoint of inhibition, the IC50, lay at 30 nM. Also, the “HLM (% remaining @ 30 minutes)” value in data set [2] is reported as 98%. Further, in data set [3], the “RLM (% remaining @ 30 minutes)” value is 72%.

Compound `O=C(Nc1cc[nH]c(=O)c1)c1cc(C(F)(F)F)ccc1Oc1ccc(OC(F)(F)F)cc1` [Compound 72, N-(2-oxo-1,2-dihydropyridin-4-yl)-2-(4-(trifluoromethoxy)phenoxy)-5-(trifluoromethyl)benzamide] registered an IC50 in data set [1] of 13 nM. Also, in data set [2], the “HLM (% remaining @ 30 minutes)” value is listed as 100%. Also, the “RLM (% remaining @ 30 minutes)” value in data set [3] was 95.5%.

As for `O=C(Nc1cc[nH]c(=O)c1)c1cc(C(F)(F)F)ccc1Oc1ccccc1OC(F)(F)F` [Compound 75, N-(2-oxo-1,2-dihydropyridin-4-yl)-2-(2-(trifluoromethoxy)phenoxy)-5-(trifluoromethyl)benzamide], the IC50 in data set [1] was 51 nM. Also, in data set [2], the “HLM (% remaining @ 30 minutes)” value worked out at 90%. Besides, in data set [3], the “RLM (% remaining @ 30 minutes)” value was found to be 95%.

`O=C(Nc1cc[nH]c(=O)c1)c1cc(C(F)(F)F)ccc1Oc1ccccc1OC(F)F` [Compound 76, 2-(2-(difluoromethoxy)phenoxy)-N-(2-oxo-1,2-dihydropyridin-4-yl)-5-(trifluoromethyl)benzamide] registered an IC50 in data set [1] of 54 nM. The “HLM (% remaining @ 30 minutes)” value in data set [2] came out at 97%. In data set [3], the “RLM (% remaining @ 30 minutes)” value worked out at 93%.

`O=C(Nc1cc[nH]c(=O)c1)c1ccc(C(F)(F)F)cc1Oc1ccc(OC(F)(F)F)cc1` [Compound 79, N-(2-oxo-1,2-dihydropyridin-4-yl)-2-(4-(trifluoromethoxy)phenoxy)-4-(trifluoromethyl)benzamide]: the half-maximal inhibitory concentration (IC50) in data set [1] was determined as 11 nM. Besides, the “HLM (% remaining @ 30 minutes)” value in data set [2] came out at 103%. Moreover, in data set [3], the “RLM (% remaining @ 30 minutes)” value was 100%.

In turn, `O=C(Nc1cc[nH]c(=O)c1)c1ccc(C(F)(F)F)cc1Oc1ccc(OC(F)F)cc1` [Compound 82, 2-(4-(difluoromethoxy)phenoxy)-N-(2-oxo-1,2-dihydropyridin-4-yl)-4-(trifluoromethyl)benzamide] had an IC50 in data set [1] of 36 nM. In data set [2], the “HLM (% remaining @ 30 minutes)” value came to 101%. The “RLM (% remaining @ 30 minutes)” value in data set [3] is recorded as 98%.

As for `O=C(Nc1cc[nH]c(=O)c1)c1ccc(C(F)(F)C(F)(F)F)cc1Oc1ccc(F)cc1` [Compound 88, 2-(4-fluorophenoxy)-N-(2-oxo-1,2-dihydropyridin-4-yl)-4-(perfluoroethyl)benzamide], half-maximal inhibition in data set [1] (IC50) required 12 nM. Further, the “HLM (% remaining @ 30 minutes)” value in data set [2] was 100%. In data set [3], the “RLM (% remaining @ 30 minutes)” value turned out to be 102%.

The compound `O=C(Nc1cc[nH]c(=O)c1)c1cc(C(F)(F)F)ccc1Oc1ccc(F)c(F)c1F` [Compound 90, N-(2-oxo-1,2-dihydropyridin-4-yl)-5-(trifluoromethyl)-2-(2,3,4-trifluorophenoxy)benzamide] had an IC50 in data set [1] of 26 nM. The “HLM (% remaining @ 30 minutes)” value in data set [2] was found to be 101%. Further, the “RLM (% remaining @ 30 minutes)” value in data set [3] is listed as 104%.

In data set [1], `O=C(Nc1cc[nH]c(=O)c1)c1cc(F)ccc1Oc1ccc(OC(F)(F)F)cc1` [Compound 101, 5-fluoro-N-(2-oxo-1,2-dihydropyridin-4-yl)-2-(4-(trifluoromethoxy)phenoxy)benzamide] showed an IC50 of 120 nM. The “HLM (% remaining @ 30 minutes)” value in data set [2] stood at 97%. The “RLM (% remaining @ 30 minutes)” value in data set [3] is 89%.

Regarding `O=C(Nc1cc[nH]c(=O)c1)c1cc(F)c(Cl)cc1Oc1ccc(F)cc1Cl` [Compound 109, 4-chloro-2-(2-chloro-4-fluorophenoxy)-5-fluoro-N-(2-oxo-1,2-dihydropyridin-4-yl)benzamide], the IC50 in data set [1] was found to be 19 nM. The “HLM (% remaining @ 30 minutes)” value in data set [2] is 103%. Further, in data set [3], the “RLM (% remaining @ 30 minutes)” value is 100%.

With `COc1cc(F)ccc1Oc1cc(C(F)(F)C(F)(F)F)ccc1C(=O)Nc1cc[nH]c(=O)c1` [Compound 111, 2-(4-fluoro-2-methoxyphenoxy)-N-(2-oxo-1,2-dihydropyridin-4-yl)-4-(perfluoroethyl)benzamide], the IC50 in data set [1] came out at 3 nM. Moreover, in data set [2], the “HLM (% remaining @ 30 minutes)” value was determined as 91%. In data set [3], the “RLM (% remaining @ 30 minutes)” value was found to be 90%.

Source of the values: US9051270B2, “Pyridone amides as modulators of sodium channels” (Vertex Pharmaceuticals Incorporated, priority 2013, dated 2015).
